Data published in patent publication US20050261342A1, “Metabolites of (+)-(2S,3S)-3(2-methoxy-5- trifluoromethoxybenzylamino)-2-phenyl-piperidine” (Pfizer Inc., priority 2004, published 2005).

Assay: Profiling and quantitative assessment of radiolabelled metabolites in human subjects after a single oral dose of [14C]-(+)-(2S, 3S)-3-(2-methoxy-5-trifluoromethoxybenzylamino)-2-phenyl-piperidine
Assay type: in vivo
Conditions: single 30 mg (free base) oral dose of [14C] parent compound, HPLC radioprofiling of pooled serum (1-24 h)
Procedure: Six healthy male human subjects (4 extensive metabolizers (EM) of CYP2D6 and 2 poor metabolizers (PM) of CYP2D6) were administered in a single 30 mg (free base) oral dose of (+)-(2S, 3S)-3-(2-methoxy-5-trifluoromethoxybenzylamino)-2-phenyl-piperidine containing 100 *Ci of [14C]-(+)-(2S, 3S)-3-(2-methoxy-5-trifluoromethoxybenzylamino)-2-phenyl-piperidine (Lot # 49800-59-3, specific activity 1.22 mCi/mmol, radio purity of >99%). Blood samples were collected into red-top tubes (no preservatives or anticoagulant or serum separator) at the following time points: 1, 4, 8, 12, and 24 hours post dose. The blood samples were centrifuged at 4° C. and serum was transferred to clean tubes.
a) Serum samples were pooled by human subject separately (3 ml from each sampling time, total of 15 ml) and aliquots of 1.5 mL from each pool were extracted with 5 mL of acetonitrile. The mixtures were vortex mixed for 5 minutes and centrifuged at 3500 rpm for 5 minutes to remove the precipitated proteins. Supernatants were combined and a small aliquot of supernatant was counted. Approximately 96% (average of all subjects) of the radioactivity was recovered in the supernatant. The supernatants were evaporated under N^2 in a turbovap at room temperature. […]
Measuring the radioactivity in the individual peaks separated on the HPLC column using a -RAM detector allowed the quantification of each metabolite. […]

O=C(O)c1cc(OC(F)(F)F)ccc1O [5-trifluoromethoxy salicylic acid, 2-Hydroxy-5-trifluoromethoxy-benzoic acid]
accounted for % of the total radioactivity (EM subjects (extensive metabolizers of CYP2D6)): approximately 56%
accounted for % of the total radioactivity (PM subjects (poor metabolizers of CYP2D6)): ~29%
